Where two headings read alike, the source gives them in different places.

In series [1] the target is FGFR1 (h) (Homo sapiens, UniProt P11362). In words: FGFR1 (enzymatic assay), TR-FRET. Type of series: biochemical. To be noted: average values if tested multiple times, read-out: FGFR 1 pIC50 (converted). For orientation: TR-FRET usually uses a lanthanide donor and a delayed reading to cut background.
Series [2] concerns the target FGFR4 (h) (Homo sapiens, UniProt P22455). The series can be described thus: FGFR4 (enzymatic assay), TR-FRET. The format is biochemical. To be noted: FGFR 4 pIC50, enzymatic assay; average values if tested multiple times.
The target in series [3] is FGFR2 (h) (Homo sapiens, UniProt P21802). The series can be described thus: FGFR2 (enzymatic assay), TR-FRET. Type of series: biochemical. The settings on record: enzymatic assay; average values if tested multiple times; read-out: FGFR 2 pIC50 (converted). Summed up:
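Kinase reaction in 50 mM HEPES pH 7.5 with 6 mM MnCl2, 1 mM DTT, 0.1 mM Na3VO4 and 0.01% Triton-X-100 contained FGFR2 (h) at 150 ng/ml. Biotinylated Flt3 peptide (500 nM) served as substrate with 0.4 μM ATP, compound added in 1% DMSO final.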

In series [4] the target is KDR (h) (Homo sapiens, UniProt P35968). In words: KDR (VEGFR2) (enzymatic assay), TR-FRET. The settings on record: read-out: VEGFR 2 (KDR) pIC50 (converted). The format is biochemical. Summed up: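 Enzyme at 150 ng/ml was incubated 120 min at room temperature with 500 nM Btn-Flt3 peptide and 3 μM ATP in 50 mM HEPES pH 7.5, 6 mM MnCl2, 1 mM DTT, 0.1 mM Na3VO4, 0.01% Triton-X-100, 1% DMSO final. EDTA stop with Eu-anti-P-Tyr/SA-XL-665, 60 min; TR-FRET read in RFU.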

Series [5] has as its system Ba/F3-FGFR3-transfected cells. The series can be described thus: Ba/F3-FGFR3 (plus IL3) cellular proliferation assay, counterscreen with 10 ng/ml murine IL3. Type of series: cell-based. To be noted: plus IL3 (10 ng/ml murine IL3, counterscreen); for IC50: read-out: BAF3-FGFR3 (PLUS IL3) pIC50 (converted). Summed up:
(§1)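 Viability readout was resazurin reduction (ex 540/em 590 nm) after 4 h, following 24 h compound treatment at 37 °C of FGFR3-transfected Ba/F3 cells (20000/well, RPMI-1640/10% FBS). IL3-dependent counterscreen used identical conditions plus 10 ng/ml murine IL3.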
Background: Counterscreens check selectivity or assay interference.

In series [6] the target is T1, Ba/F3-FGFR1-transfected cells (Homo sapiens, UniProt P11362).
T1 construct: BAF3-FGFR1 (MIN IL3) pIC50; other: minus IL3
In words: Ba/F3-FGFR1 (minus IL3) cellular proliferation assay, Alamar Blue. Type of series: cell-based. Summed up: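 Viability was measured by resazurin reduction (fluorescence, 540 nm excitation/590 nm emission) after a 4 h Alamar Blue incubation. This followed 24 h of compound treatment at 37 °C, 5% CO2, of 20000 FGFR1-transfected Ba/F3 cells per well in 10% FBS RPMI-1640.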

The target in series [7] is FGFR3 (h) (Homo sapiens, UniProt P22607). In words: FGFR3 (enzymatic assay), TR-FRET. The format is biochemical. To be noted: average values if tested multiple times, read-out: FGFR 3 pIC50 (converted). The text has this: Time-Resolved Fluorescence Resonance Energy Transfer (TR-FRET) signal (ex340 nm.
FGFR3 (h), sequence (P22607 23-806): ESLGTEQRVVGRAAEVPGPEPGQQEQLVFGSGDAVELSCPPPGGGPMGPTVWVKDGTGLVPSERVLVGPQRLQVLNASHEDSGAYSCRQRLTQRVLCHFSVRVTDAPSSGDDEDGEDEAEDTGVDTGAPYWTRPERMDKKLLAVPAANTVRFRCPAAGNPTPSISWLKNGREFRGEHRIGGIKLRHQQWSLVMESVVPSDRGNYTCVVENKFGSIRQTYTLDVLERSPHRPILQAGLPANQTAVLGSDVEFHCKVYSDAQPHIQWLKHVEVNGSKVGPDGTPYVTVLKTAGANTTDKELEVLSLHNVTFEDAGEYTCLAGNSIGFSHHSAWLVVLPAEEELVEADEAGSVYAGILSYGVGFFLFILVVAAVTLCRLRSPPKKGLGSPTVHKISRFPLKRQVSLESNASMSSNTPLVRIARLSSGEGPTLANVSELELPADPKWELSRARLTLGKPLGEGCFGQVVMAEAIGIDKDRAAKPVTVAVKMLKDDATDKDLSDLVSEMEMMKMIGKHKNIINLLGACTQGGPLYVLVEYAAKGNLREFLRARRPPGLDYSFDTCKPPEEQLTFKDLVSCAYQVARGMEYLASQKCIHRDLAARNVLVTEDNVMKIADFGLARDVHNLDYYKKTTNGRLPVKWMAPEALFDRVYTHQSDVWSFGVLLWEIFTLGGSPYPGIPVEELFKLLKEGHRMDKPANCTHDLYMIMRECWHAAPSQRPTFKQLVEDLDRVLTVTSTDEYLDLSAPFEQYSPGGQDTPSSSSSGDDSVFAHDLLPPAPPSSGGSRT
In series [8] the target is T2, Ba/F3-FGFR3-transfected cells (Homo sapiens, UniProt P22607).
T2 construct: BAF3-FGFR3 (MIN IL3) pIC50; other: minus IL3
T2 sequence (P22607 whole entry, change not shown): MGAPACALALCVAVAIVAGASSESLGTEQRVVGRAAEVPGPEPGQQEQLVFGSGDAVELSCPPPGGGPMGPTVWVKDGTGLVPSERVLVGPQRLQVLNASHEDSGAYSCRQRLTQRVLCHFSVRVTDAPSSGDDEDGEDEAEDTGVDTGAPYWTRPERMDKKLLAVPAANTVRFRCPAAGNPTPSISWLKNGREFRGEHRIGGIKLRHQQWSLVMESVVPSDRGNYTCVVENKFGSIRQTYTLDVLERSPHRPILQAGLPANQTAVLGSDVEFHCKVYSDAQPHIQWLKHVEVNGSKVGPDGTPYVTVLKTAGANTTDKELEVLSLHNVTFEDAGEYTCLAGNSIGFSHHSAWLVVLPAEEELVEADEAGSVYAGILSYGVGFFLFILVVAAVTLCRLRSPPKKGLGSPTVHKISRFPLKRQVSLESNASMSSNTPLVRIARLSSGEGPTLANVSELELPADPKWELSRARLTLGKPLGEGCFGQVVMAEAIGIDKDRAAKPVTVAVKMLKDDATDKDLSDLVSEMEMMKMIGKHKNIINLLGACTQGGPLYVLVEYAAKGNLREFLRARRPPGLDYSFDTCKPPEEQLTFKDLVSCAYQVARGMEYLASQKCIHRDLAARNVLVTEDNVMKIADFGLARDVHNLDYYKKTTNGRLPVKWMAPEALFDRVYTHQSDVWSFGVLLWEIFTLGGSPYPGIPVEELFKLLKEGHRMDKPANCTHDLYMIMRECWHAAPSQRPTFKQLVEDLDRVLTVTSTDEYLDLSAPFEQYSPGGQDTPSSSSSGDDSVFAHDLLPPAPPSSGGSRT
In words: Ba/F3-FGFR3 (minus IL3) cellular proliferation assay, Alamar Blue. The format is cell-based. The gist of the method: as §1

Series [9] concerns Ba/F3-FGFR1-transfected cells. In words: Ba/F3-FGFR1 (plus IL3) cellular proliferation assay, counterscreen with 10 ng/ml murine IL3. The format is cell-based. The settings on record: plus IL3 (10 ng/ml murine IL3, counterscreen); for IC50: read-out: BAF3-FGFR1 (PLUS IL3) pIC50 (converted). Summed up: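 Ba/F3-FGFR1 cells (20000/well) in RPMI-1640 with 10% FBS exposed to compound for 24 h at 37° C., 5% CO2, then Alamar Blue (resazurin) added for 4 h; fluorescence read at ex 540/em 590 nm. Counterscreen run identically with 10 ng/ml murine IL3.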

In series [10] the target is T3, Ba/F3-KDR-transfected cells (Homo sapiens, UniProt P35968).
T3 construct: BAF3-KDR (MIN IL3) pIC50; other: minus IL3
T3 sequence (P35968 whole entry, change not shown): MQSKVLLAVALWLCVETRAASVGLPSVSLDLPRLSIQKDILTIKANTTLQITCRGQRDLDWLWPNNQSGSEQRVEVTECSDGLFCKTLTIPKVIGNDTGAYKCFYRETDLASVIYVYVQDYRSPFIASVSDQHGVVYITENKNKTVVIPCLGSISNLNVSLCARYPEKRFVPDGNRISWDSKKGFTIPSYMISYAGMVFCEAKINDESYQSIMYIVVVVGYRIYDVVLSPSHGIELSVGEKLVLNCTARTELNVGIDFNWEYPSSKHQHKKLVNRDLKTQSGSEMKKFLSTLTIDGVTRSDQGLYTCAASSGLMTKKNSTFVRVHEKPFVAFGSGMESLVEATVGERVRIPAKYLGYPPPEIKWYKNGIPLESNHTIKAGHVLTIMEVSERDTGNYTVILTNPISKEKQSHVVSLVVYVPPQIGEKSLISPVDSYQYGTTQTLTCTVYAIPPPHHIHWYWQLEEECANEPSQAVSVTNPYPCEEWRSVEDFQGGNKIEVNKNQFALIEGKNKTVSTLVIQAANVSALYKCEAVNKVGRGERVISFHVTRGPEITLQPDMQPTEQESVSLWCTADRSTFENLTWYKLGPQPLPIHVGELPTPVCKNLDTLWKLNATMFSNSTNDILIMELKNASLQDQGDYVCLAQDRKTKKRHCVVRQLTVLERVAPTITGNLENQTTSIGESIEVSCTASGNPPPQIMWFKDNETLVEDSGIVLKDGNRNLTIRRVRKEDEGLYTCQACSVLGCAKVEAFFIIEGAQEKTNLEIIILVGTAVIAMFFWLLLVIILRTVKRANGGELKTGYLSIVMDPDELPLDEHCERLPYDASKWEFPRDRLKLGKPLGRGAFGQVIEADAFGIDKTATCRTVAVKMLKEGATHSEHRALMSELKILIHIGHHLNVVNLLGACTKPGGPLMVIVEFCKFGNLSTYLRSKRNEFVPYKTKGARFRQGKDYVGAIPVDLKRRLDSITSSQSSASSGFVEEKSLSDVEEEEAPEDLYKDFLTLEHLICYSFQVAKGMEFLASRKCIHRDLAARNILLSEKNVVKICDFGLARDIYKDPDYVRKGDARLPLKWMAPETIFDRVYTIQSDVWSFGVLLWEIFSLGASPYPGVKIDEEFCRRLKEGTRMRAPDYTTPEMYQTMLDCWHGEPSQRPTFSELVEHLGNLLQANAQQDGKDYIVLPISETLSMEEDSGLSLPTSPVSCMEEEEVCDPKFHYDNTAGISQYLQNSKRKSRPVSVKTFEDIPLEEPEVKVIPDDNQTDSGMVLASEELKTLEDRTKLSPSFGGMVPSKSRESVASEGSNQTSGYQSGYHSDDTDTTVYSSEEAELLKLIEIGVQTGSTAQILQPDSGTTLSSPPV
The series can be described thus: Ba/F3-KDR (minus IL3) cellular proliferation assay, Alamar Blue. Type of series: cell-based. The gist of the method: (§2)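 Ba/F3-KDR cells (20000 per well) in phenol red-free RPMI-1640 with 10% FBS were exposed to compound for 24 hours at 37° C, 5% CO2. Alamar Blue (resazurin) was then added for 4 hours, and fluorescence was read at ex. 540 nm/em. 590 nm.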
In general terms: Alamar Blue is a resazurin reagent that responds to reducing activity.

For series [11], the target named is Ba/F3-FGFR4-transfected cells (Homo sapiens, UniProt P22455). The series can be described thus: Ba/F3-FGFR4 cellular proliferation assay, Alamar Blue. The format is cell-based. Summed up:
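Compounds in DMSO were dispensed before 20000 Ba/F3-FGFR4-transfected cells per well were added in phenol red free RPMI-1640 with 10% FBS, 2 mM L-Glutamine. After 24 hours at 37° C and 5% CO2, Alamar Blue was added for 4 hours and fluorescence read (ex. 540 nm, em. 590 nm).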

In series [12] the test system is Ba/F3-KDR-transfected cells. In words: Ba/F3-KDR (plus IL3) cellular proliferation assay, counterscreen with 10 ng/ml murine IL3. The format is cell-based. To be noted: plus IL3 (10 ng/ml murine IL3, counterscreen). The gist of the method:
as §2

The mark [13] stands for this setting: average values if tested multiple times.

FGFR4 (h), sequence (P22455 22-802): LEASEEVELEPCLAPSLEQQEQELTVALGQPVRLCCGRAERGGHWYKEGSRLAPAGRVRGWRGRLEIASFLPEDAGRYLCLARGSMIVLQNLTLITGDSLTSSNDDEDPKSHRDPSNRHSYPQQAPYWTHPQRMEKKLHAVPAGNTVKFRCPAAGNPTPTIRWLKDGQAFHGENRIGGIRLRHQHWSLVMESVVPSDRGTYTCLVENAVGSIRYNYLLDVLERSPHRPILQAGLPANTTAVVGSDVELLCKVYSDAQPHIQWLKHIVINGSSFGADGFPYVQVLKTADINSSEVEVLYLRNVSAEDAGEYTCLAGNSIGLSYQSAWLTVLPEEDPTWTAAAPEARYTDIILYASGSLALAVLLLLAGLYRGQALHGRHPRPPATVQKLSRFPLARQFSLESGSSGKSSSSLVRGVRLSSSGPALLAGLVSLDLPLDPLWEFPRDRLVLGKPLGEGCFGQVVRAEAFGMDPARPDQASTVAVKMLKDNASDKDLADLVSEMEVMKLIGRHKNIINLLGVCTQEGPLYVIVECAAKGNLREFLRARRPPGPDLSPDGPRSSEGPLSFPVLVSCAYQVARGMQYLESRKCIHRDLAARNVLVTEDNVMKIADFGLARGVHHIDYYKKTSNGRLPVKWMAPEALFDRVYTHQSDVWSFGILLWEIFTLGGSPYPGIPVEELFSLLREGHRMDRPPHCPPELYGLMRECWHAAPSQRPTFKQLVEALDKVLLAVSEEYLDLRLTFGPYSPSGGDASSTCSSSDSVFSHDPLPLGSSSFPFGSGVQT
FGFR2 (h), sequence (P21802 22-821): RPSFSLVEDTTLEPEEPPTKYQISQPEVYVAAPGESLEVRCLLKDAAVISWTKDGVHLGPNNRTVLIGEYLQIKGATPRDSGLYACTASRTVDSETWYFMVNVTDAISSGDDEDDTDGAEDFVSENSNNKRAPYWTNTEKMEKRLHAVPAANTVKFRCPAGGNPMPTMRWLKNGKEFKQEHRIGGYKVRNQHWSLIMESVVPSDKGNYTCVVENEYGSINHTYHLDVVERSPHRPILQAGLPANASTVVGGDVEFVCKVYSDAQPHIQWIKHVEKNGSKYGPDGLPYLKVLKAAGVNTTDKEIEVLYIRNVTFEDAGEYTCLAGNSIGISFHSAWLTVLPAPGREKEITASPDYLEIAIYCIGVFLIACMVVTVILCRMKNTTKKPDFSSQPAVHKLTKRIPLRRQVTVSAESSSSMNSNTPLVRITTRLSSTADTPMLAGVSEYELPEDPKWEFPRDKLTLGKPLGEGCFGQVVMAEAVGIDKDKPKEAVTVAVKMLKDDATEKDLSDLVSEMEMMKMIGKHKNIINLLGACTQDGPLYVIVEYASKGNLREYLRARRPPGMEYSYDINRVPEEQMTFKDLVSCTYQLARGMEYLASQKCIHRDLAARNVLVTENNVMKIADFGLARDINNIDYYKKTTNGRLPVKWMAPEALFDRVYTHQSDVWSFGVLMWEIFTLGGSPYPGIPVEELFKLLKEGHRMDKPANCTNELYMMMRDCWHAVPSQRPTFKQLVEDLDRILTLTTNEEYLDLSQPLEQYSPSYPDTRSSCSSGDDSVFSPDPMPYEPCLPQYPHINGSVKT

By melting point is commonly meant the temperature of the solid-liquid transition. With `COc1cc(OC)c(F)c(/N=c2\ccc3ncc(-c4cnn(C)c4)nc3n2CCCO)c1F` (single isomer, unassigned) [Compound 17], the melting point was found to be 206 °C. For the same compound, the IC50 in series [1] was 0.251 nM. The same compound gave an IC50 in series [2] of 0.501 nM. Besides, in series [3], the IC50 is 1.26 nM. Besides, the IC50 in [4] (setting [13]) was 3.98 nM. Besides, the IC50 in series [5] was > 10000 nM. Also, in series [6], the “BAF3-FGFR1 (MIN IL3) pIC50” value worked out at 8.7. Besides, in series [7], the IC50 is 0.398 nM. For the same compound, the “BAF3-FGFR3 (MIN IL3) pIC50” value in series [8] came to 8.6. The IC50 in [9] is > 10000 nM. In addition, the “BAF3-KDR (MIN IL3) pIC50” value in series [10] is reported as 6.8.

As for `CNCCn1/c(=N/c2c(F)c(OC)cc(OC)c2F)ccc2ncc(-c3cnn(C)c3)nc21` [Compound 4], the melting point is 174 °C. Further, the IC50 in [1] is 1.26 nM. In series [2], this compound gave an IC50 of 7.94 nM. In addition, in series [3], the IC50 is 3.98 nM. The IC50 in series [4] (setting [13]) is 63.1 nM. Also, in series [5], the IC50 was > 10000 nM. The “BAF3-FGFR1 (MIN IL3) pIC50” value in series [6] stood at 7.3. For the same compound, the IC50 in series [7] was 3.16 nM. Moreover, the “BAF3-FGFR3 (MIN IL3) pIC50” value in [8] came out at 6.9. Also, in series [9], the IC50 was > 10000 nM. Also, the “BAF3-KDR (MIN IL3) pIC50” value in series [10] is on record as 5.4.

With `COc1cc(OC)c(F)c(/N=c2\ccc3ncc(-c4cnn(C)c4)nc3n2CC2CCC(=O)N2)c1F` (stereo not drawn) [Compound 47], the melting point worked out at 169 °C. Besides, the IC50 in [1] is 0.661 nM. Moreover, in series [2], the IC50 was 1.45 nM. Also, the IC50 in series [3] was 1.41 nM. Besides, the “BAF3-FGFR4 pIC50” value in [11] is recorded as 6.70. In [4] (setting [13]), the IC50 was 12.6 nM. For the same compound, the “BAF3-FGFR3 (PLUS IL3) pIC50” value in series [5] is <5. For the same compound, in series [6], the “BAF3-FGFR1 (MIN IL3) pIC50” value is on record as 7.86. Further, the IC50 in series [7] is ~0.933 nM. The “BAF3-FGFR3 (MIN IL3) pIC50” value in series [8] is on record as ~7.76. Also, in [12], the “BAF3-KDR (PLUS IL3) pIC50” value is <5. Further, the “BAF3-FGFR1 (PLUS IL3) pIC50” value in series [9] is <5. Further, the “BAF3-KDR (MIN IL3) pIC50” value in [10] was 6.28.

For `COc1cc(OC)cc(N(CC2CCC(=O)N2)c2ccc3ncc(-c4cnn(C)c4)nc3n2)c1` (stereo not drawn) [Compound 54], the melting point came to 125 °C. Further, the IC50 in series [1] was 6.76 nM. The IC50 in series [2] was 17.4 nM. Besides, in [3], the IC50 is 4.9 nM. Besides, the “BAF3-FGFR4 pIC50” value in series [11] is given as 6.05. Further, the IC50 in [4] (setting [13]) was 66.1 nM. Also, in series [5], the “BAF3-FGFR3 (PLUS IL3) pIC50” value is <5. The “BAF3-FGFR1 (MIN IL3) pIC50” value in series [6] came out at 6.64. In addition, the IC50 in [7] is 3.02 nM. Also, the “BAF3-FGFR3 (MIN IL3) pIC50” value in series [8] was determined as 6.83. Besides, the “BAF3-KDR (PLUS IL3) pIC50” value in series [12] is listed as <5. Moreover, the “BAF3-FGFR1 (PLUS IL3) pIC50” value in series [9] is reported as <5. The “BAF3-KDR (MIN IL3) pIC50” value in series [10] is given as 5.39.

In the case of `COc1cc(OC)cc(N(CCNC(C)=O)c2ccc3ncc(-c4cnn(C)c4)nc3n2)c1` [Compound 235], the melting point amounted to 193 °C. Moreover, the IC50 in [4] is 79.4 nM. In addition, in [5], the IC50 was > 10000 nM. Moreover, the IC50 in series [12] (read-out: BAF3-KDR (PLUS IL3) pIC50 (converted)) was > 10000 nM. The IC50 in [9] was > 10000 nM. In [10], the “BAF3-KDR (MIN IL3) pIC50” value came out at 5.62.

The values are drawn from US9309242B2, “Substituted pyrido[2,3-b]pyrazines as FGFR kinase inhibitors” (priority 2011, dated 2016).
